This is an account of results in ChEMBL document CHEMBL4265917, “Antibacterial and antioxidant activities for natural and synthetic dual-active compounds” (Eur J Med Chem, 2018).

The nature of test [1]: Antioxidant activity assessed as DPPH free radical scavenging activity incubated for 30 mins in dark condition. The format is functional. (In general: The DPPH test is a chemical assay of radical scavenging.)
Test [2] relates to Escherichia coli. The experiment in a line: Antibacterial activity against Escherichia coli after 16 hrs by broth microdilution method. The format is functional. (In general: In broth dilution the organism is exposed to a series of concentrations in liquid medium.)
For test [3], the system named is Staphylococcus aureus. The test can be described thus: Antibacterial activity against Staphylococcus aureus after 16 hrs by broth microdilution method. The format is functional.
Test [4] in a line: Antioxidant activity assessed as DPPH free radical scavenging activity incubated for 30 min by UV-vis spectrophotometric analysis. The format is functional.
Test [5] relates to Escherichia coli. The experiment in a line: Antibacterial activity against Escherichia coli KCTC 1924 after 20 to 36 hrs by disc diffusion method. The format is functional.
Test [6] relates to Staphylococcus aureus. The test can be described thus: Antibacterial activity against Staphylococcus aureus KCTC 1916 after 20 to 36 hrs by disc diffusion method. The format is functional. A general note: A growth-free zone around the sample is the usual read-out of agar diffusion tests.
The nature of test [7]: Antioxidant activity assessed as DPPH free radical scavenging activity. The format is functional.
For another test, the system named is Enterococcus faecalis. The test can be described thus: Antibacterial activity against Enterococcus faecalis. The format is functional.
Test [8] has as its system Staphylococcus aureus. The test can be described thus: Antibacterial activity against Staphylococcus aureus. The format is functional.
The test system of test [9] is Staphylococcus aureus. The test can be described thus: Antibacterial activity against methicillin-resistant Staphylococcus aureus after 24 hrs by microbroth dilution method. The format is functional.
The subject of test [10] is Bacillus subtilis. The experiment in a line: Antibacterial activity against Bacillus subtilis ATCC 11562 by colorimetric based broth dilution method. The format is functional, organism-based.
For test [11], the system named is Pseudomonas amygdali pv. lachrymans. The test can be described thus: Antibacterial activity against Pseudomonas syringae pv. lachrymans ATCC 11921 by colorimetric based broth dilution method. The format is functional, organism-based.
Test [12] relates to Escherichia coli. The test can be described thus: Antibacterial activity against Escherichia coli ATCC 10536 by agar diffusion method. The format is functional.
Test [13] relates to Staphylococcus aureus. The experiment in a line: Antibacterial activity against Staphylococcus aureus ATCC 6538 by agar diffusion method. The format is functional.
The nature of test [14]: Antioxidant activity assessed as BTH equivalent of DPPH-induced radical scavenging activity. The format is functional.
In test [15] the test system is Escherichia coli. The experiment in a line: Antibacterial activity against Escherichia coli after 18 hrs by CLSI broth microdilution method. The format is functional.
The subject of test [16] is Staphylococcus aureus. The test can be described thus: Antibacterial activity against Staphylococcus aureus after 18 hrs by CLSI broth microdilution method. The format is functional.
Test [17] concerns Staphylococcus aureus. The experiment in a line: Antibacterial activity against methicillin-resistant Staphylococcus aureus. The format is functional.
In test [18] the test system is Staphylococcus aureus. The experiment in a line: Antibiofilm activity against methicillin-resistant Staphylococcus aureus at 100 ug/ml after 18 hrs by crystal violet staining-based method relative to control. The format is functional.
For the next test, the system named is Salmonella typhimurium. The test can be described thus: Antibacterial activity against Salmonella typhimurium after 17 hrs by NCCLS broth microdilution method. The format is functional, Salmonella enterica subsp. enterica serovar Typhimurium. As to conditions: Salmonella enterica.
The subject of test [19] is Staphylococcus aureus. The experiment in a line: Antibiofilm activity against methicillin-resistant Staphylococcus aureus at 150 ug/ml after 18 hrs by crystal violet staining-based method relative to control. The format is functional.
Another test concerns Listeria monocytogenes. The experiment in a line: Antibacterial activity against Listeria monocytogenes after 17 hrs by NCCLS broth microdilution method. The format is functional.
Test [20] relates to Bacillus subtilis. The experiment in a line: Antibacterial activity against Bacillus subtilis after 17 hrs by NCCLS broth microdilution method. The format is functional.
The test system of another test is Campylobacter jejuni. The test can be described thus: Antibacterial activity against Campylobacter jejuni after 17 hrs by NCCLS broth microdilution method. The format is functional.
A short description of test [21]: Antioxidant activity assessed as reduction of Fe3+-TPTZ to Fe2+-TPTZ by measuring trolox equivalence of antioxidant capacity by FRAP assay. The format is functional.
In test [22] the test system is Aliarcobacter cryaerophilus. The experiment in a line: Antibacterial activity against Arcobacter cryaerophilus after 17 hrs by NCCLS broth microdilution method. The format is functional.
The test system of the next test is Bacillus cereus. The test can be described thus: Antibacterial activity against Bacillus cereus after 17 hrs by NCCLS broth microdilution method. The format is functional.
The subject of test [23] is Escherichia coli. The test can be described thus: Antibacterial activity against Escherichia coli after 17 hrs by NCCLS broth microdilution method. The format is functional.
A further test deals with Vibrio cholerae. The test can be described thus: Antibacterial activity against Vibrio cholerae after 17 hrs by NCCLS broth microdilution method. The format is functional.
Another test relates to Aliarcobacter butzleri. The test can be described thus: Antibacterial activity against Arcobacter butzleri after 17 hrs by NCCLS broth microdilution method. The format is functional.
A short description of test [24]: Antioxidant activity assessed as ABTS radical scavenging activity by measuring trolox equivalence of antioxidant capacity at 1 uM up to 24 hrs by spectrophotometric analysis. The format is functional.
A further test deals with Campylobacter coli. The test can be described thus: Antibacterial activity against Campylobacter coli after 17 hrs by NCCLS broth microdilution method. The format is functional.
A short description of test [25]: Antioxidant activity assessed as trolox equivalent of AAPH-induced radical scavenging activity preincubated for 30 mins followed by […] challenge measured every 1.14 mins for 120 mins by ORAC-FL assay. The format is functional.
Test [26] concerns Staphylococcus aureus. The test can be described thus: Antibacterial activity against Staphylococcus aureus after 17 hrs by NCCLS broth microdilution method. The format is functional.

SMILES strings stand for the structures. ≈ marks a conversion by molar mass, not a printed value.

In the case of `COc1cc(C2CC(C(=NNc3ccc(C)cc3)C3=NC(=S)NC(c4ccc(O)c(OC)c4)C3)=NC(=S)N2)ccc1O` (stereo not drawn), the IC50 in [1] worked out at 0.679 µg/mL (≈ 1.13 µM).
Turning to `Cc1ccc(C(C)C)c(O)c1` [THYMOL], the MIC in the test on Escherichia coli [2] and in the test with Staphylococcus aureus [3] was 2.5 µg/mL (≈ 16.6 µM) throughout.
On to `Oc1ccc2cc(Br)ccc2c1-c1c[nH]c2ccccc12`, for which the EC50 in test [4] amounted to 3.8 µg/mL (≈ 11.2 µM). Further, the results for the MIC in the test on Escherichia coli [5] and in the test with Staphylococcus aureus [6] were 5.32 µg/mL (≈ 15.7 µM) and 14.8 µg/mL (≈ 43.8 µM), respectively.
`O=C(/C=C/c1ccc(O)c(O)c1)O[C@@H]1C[C@](O)(C(=O)O)C[C@@H](O)[C@H]1O` [CHLOROGENIC ACID]: the EC50 in test [7] is 13.8 µg/mL (≈ 38.9 µM). Also, the MIC in the test on Enterococcus faecalis and in the test with Staphylococcus aureus [8] was 32 to 128 µg/mL (≈ 90.3 to 361 µM) throughout.
For `COc1cc(/C=C/c2cc(/C=C/c3ccc(OCC(=O)N[C@H](C)c4ccccc4)c(OC)c3)[nH]n2)ccc1OCC(=O)N[C@H](C)c1ccccc1`, in the test on Staphylococcus aureus [9], the MIC fell in the range of 10 to 20 µg/mL (≈ 14.6 to 29.1 µM).
Consider `COc1cc(O)c2c(=O)oc3c(O)c(O)cc(C)c3c2c1`, for which the IC50 amounted to 29 µM in the test with Bacillus subtilis [10] and 7 µM in test [11]. The EC50 in [1] amounted to 68.3 µM.
With `O=C(CCc1ccc(O)cc1)c1c(O)cc(O)cc1O` [PHLORETIN], the MIC in the test on Escherichia coli [12] is 250 µg/mL (≈ 912 µM); in the test with Staphylococcus aureus [13] it was 100 µg/mL (≈ 365 µM). Also, the Activity in test [14] was determined as 1.27 mg.equiv.
Regarding `Cc1c(O)cc(CCCCCCCCCC[P+](c2ccccc2)(c2ccccc2)c2ccccc2)c(O)c1C`, the MIC in the test on Escherichia coli [15] was 0.6 to 19 µg/mL; in the test on Staphylococcus aureus [16], 0.6 µg/mL.
Take `COc1cc(/C=C/c2cc(/C=C/c3ccc(OCC(=O)Nc4cccc(C(F)(F)F)c4)c(OC)c3)[nH]n2)ccc1OCC(=O)Nc1cccc(C(F)(F)F)c1`: the MIC in the test on Staphylococcus aureus [9] was in the range of 10 to 20 µg/mL (≈ 13 to 26.1 µM).
With `Cc1c(-c2cc(-c3ccc(F)cc3)nc(N)n2)nnn1-c1ccc(Cl)c(Cl)c1`, the IC50 in [1] was 59.07 µg/mL (≈ 142 µM).
The compound `COc1cc(/C=C/C(=O)CC(=O)/C=C/c2ccc(O)c(OC)c2)ccc1O` [CURCUMIN] came in with an MIC against Staphylococcus aureus [17] of 125 to 250 µg/mL (≈ 339 to 679 µM). Also, the IC50 in test [7] came out at 28 µg/mL (≈ 76 µM).
The compound `COc1cc(/C=C/c2cc(/C=C/c3ccc(OCC(=O)Nc4ccc(C)cc4)c(OC)c3)[nH]n2)ccc1OCC(=O)Nc1ccc(C)cc1` showed an MIC in the test on Staphylococcus aureus [9] of 10 to 20 µg/mL (≈ 15.2 to 30.4 µM).
With `C=CCc1ccc(O)c(OC)c1` [EUGENOL], the MIC with Escherichia coli [2] and with Staphylococcus aureus [3] was 2.5 µg/mL (≈ 15.2 µM) each time.
`Oc1ccc(/C=C/c2cc(O)cc(O)c2)cc1` [RESVERATROL] displayed an inhibition at 100 µg/mL in the test on Staphylococcus aureus [18] of 39.9%. In addition, the MIC fell in the range of 0.625 to 521 µg/mL (≈ 2.74 to 2280 µM) in the test on Salmonella typhimurium; 16.5 to 260 µg/mL (≈ 72.3 to 1140 µM) against Listeria monocytogenes; 16.5 to 260 µg/mL (≈ 72.3 to 1140 µM) against Bacillus subtilis [20]; 0.625 to 521 µg/mL (≈ 2.74 to 2280 µM) in the test with Campylobacter jejuni; 0.625 to 521 µg/mL (≈ 2.74 to 2280 µM) in [22]; 16.5 to 260 µg/mL (≈ 72.3 to 1140 µM) in the test on Bacillus cereus. The MIC against Escherichia coli [23] lay within 0.625 to 521 µg/mL (≈ 2.74 to 2280 µM); in the test on Vibrio cholerae it was 0.625 to 521 µg/mL (≈ 2.74 to 2280 µM); with Aliarcobacter butzleri, 0.625 to 521 µg/mL (≈ 2.74 to 2280 µM); in the test on Campylobacter coli it was 0.625 to 521 µg/mL (≈ 2.74 to 2280 µM); with Staphylococcus aureus [26], 16.5 to 260 µg/mL (≈ 72.3 to 1140 µM). The inhibition at 150 µg/mL with Staphylococcus aureus [19] turned out to be 23.4%. Also, the Activity turned out to be 0.47 mM in test [21], 1.57 mM in test [24] and 3.67 mM in test [25].
As to `COc1cc(/C=C/c2cc(/C=C/c3ccc(OCC(=O)Nc4ccccc4)c(OC)c3)[nH]n2)ccc1OCC(=O)Nc1ccccc1`, in the test with Staphylococcus aureus [9], the MIC was 10 to 20 µg/mL (≈ 15.9 to 31.7 µM).
Same read-out and setting: under `COc1cc(/C=C/c2cc(/C=C/c3ccc(OCC(=O)Nc4cccc(C(C)=O)c4)c(OC)c3)[nH]n2)ccc1OCC(=O)Nc1cccc(C(C)=O)c1` stands 10 to 20 µg/mL (≈ 14 to 28 µM).

In general, IC50 refers to the concentration needed to halve the response being measured. As usually defined, the MIC is the lowest concentration that inhibits growth of the organism. A low value points to greater potency. Usually EC50 stands for the concentration at which the effect is half-maximal. What is called inhibition is the change of the read-out against control, counted positive when it falls. A low value points to little suppression.
